Like-named read-outs stand apart in the source and are kept apart here.

The nature of this series: In vitro MRI determination of longitudinal and transverse relaxation rates (r1, r2) of aqueous solutions. In kind it is physicochemical. To be noted: for r1 (longitudinal relaxation rate) / r2 (transverse relaxation rate): aqueous solutions.
The mark [1] stands for this setting: H0 3.0 T clinical MRI system (Philips, Ingenia).
The mark [2] stands for this setting: H0 7.0 T small animal MRI system.

Turning to `O=C([O-])CN1CCN(CC(=O)[O-])CCN([C@H](CO)[C@H](O)CO)CCN(CC(=O)[O-])CC1.[Gd+3]` (racemic) [Gadavist, Gd-BT-DO3A], the r2/r1 (H0 3.0 T) amounted to 1.07 ± 0.03. Further, the “r1 (longitudinal relaxation rate)” value by setting is: under setting [1], 4600 ± 90 M⁻¹ s⁻¹; under setting [2], 3770 M⁻¹ s⁻¹. The “r2 (transverse relaxation rate)” value under setting [1] turned out to be 4900 ± 40 M⁻¹ s⁻¹.

Consider `O=[N+]([O-])[O-].O=[N+]([O-])[O-].O=[N+]([O-])[O-].[Gd+3]` [Gd(NO3)3, gadolinium nitrate], for which the r2/r1 was found to be 1.06 ± 0.006. Further, under setting [1], the “r1 (longitudinal relaxation rate)” value came to 11390 ± 250 M⁻¹ s⁻¹ and the “r2 (transverse relaxation rate)” value was determined as 12040 ± 310 M⁻¹ s⁻¹. In addition, under setting [2], the “r1 (longitudinal relaxation rate)” value was 8920 M⁻¹ s⁻¹.

`O=C([O-])CN(CCN(CC(=O)[O-])CC(=O)O)CCN(CC(=O)[O-])CC(=O)O.[Gd+3]` [Magnevist, Gd-DTPA] yielded a r2/r1 (H0 3.0 T) of 1.03 ± 0.03. Moreover, under setting [1], the “r1 (longitudinal relaxation rate)” value is 4880 ± 120 M⁻¹ s⁻¹ and the “r2 (transverse relaxation rate)” value was found to be 5000 ± 100 M⁻¹ s⁻¹. Further, the “r1 (longitudinal relaxation rate)” value under setting [2] stood at 3680 M⁻¹ s⁻¹.

In the case of “Gd-BSA: gadolinium chelate of bovine serum albumin”, for the setting “H0 3.0 T”, the r2/r1 stood at 1.72±0.02. Further, under setting [1], the “r1 (longitudinal relaxation rate)” value is 34880 ± 1060 M⁻¹ s⁻¹ and the “r2 (transverse relaxation rate)” value was 59920 ± 1570 M⁻¹ s⁻¹.
